Test results published in patent US20220184008A1, “MODULATORS OF INTRACELLULAR CHLORIDE CONCENTRATION” (FONDAZIONE ISTITUTO ITALIANO DI TECNOLOGIA, priority 2019, published 2022).
Read-outs that look alike come from different tables or passages of the source.

Biological target: T1, NKCC1 (Homo sapiens, UniProt P55011)
T1 construct: expressed in transfected cells; host or cells: HEK293
T1 sequence (P55011 1-1212): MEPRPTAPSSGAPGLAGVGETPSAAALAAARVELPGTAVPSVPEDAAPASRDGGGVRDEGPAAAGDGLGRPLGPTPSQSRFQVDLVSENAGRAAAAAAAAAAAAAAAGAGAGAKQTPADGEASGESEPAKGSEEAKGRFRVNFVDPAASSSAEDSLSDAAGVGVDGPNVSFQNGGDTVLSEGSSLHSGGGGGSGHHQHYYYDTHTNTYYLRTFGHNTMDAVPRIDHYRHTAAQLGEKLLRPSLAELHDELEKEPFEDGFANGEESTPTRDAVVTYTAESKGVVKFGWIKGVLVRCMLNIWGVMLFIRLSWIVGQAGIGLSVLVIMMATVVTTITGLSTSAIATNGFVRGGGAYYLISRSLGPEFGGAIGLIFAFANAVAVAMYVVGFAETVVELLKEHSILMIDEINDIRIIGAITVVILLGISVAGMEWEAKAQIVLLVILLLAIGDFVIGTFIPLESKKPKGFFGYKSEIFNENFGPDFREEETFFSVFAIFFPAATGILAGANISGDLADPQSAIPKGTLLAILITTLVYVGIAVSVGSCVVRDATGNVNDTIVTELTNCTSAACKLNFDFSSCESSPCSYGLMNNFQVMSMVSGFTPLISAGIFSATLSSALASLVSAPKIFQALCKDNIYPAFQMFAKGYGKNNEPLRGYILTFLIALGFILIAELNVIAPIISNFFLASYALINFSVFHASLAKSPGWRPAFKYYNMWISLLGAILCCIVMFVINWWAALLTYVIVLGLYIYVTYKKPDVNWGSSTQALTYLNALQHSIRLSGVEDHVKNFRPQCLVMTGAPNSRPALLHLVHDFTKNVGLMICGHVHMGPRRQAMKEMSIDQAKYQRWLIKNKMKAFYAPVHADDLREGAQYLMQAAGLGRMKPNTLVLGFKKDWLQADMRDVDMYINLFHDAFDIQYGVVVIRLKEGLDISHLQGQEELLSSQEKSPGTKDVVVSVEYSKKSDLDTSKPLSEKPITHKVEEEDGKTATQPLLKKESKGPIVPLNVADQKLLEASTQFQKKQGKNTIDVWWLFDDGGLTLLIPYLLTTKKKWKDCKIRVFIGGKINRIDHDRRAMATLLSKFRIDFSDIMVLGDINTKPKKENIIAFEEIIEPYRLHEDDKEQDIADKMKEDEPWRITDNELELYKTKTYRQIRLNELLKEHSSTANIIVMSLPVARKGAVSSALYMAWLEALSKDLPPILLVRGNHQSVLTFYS
Assay: Chloride kinetic assay (Cl-sensitive YFP) in NKCC1-transfected HEK293 cells
Type: cell-based
Details: for NKCC1 Inhibition % 10 μM HEK Chloride YFP assay / inhibition at 10 µM: NKCC1-transfected HEK293; for inhibition at 10 µM: read-out: NKCC1 Inhibition % 10 μM HEK Chloride YFP assay; for effect on decrease in fluorescence upon NaCl application in NKCC1-transfected cells: pre-incubation at 10 μM and 100 μM
Experimental: FIG. 1: In vitro testing of the NKCC1 inhibitors in the chloride kinetic assay a) Example traces obtained in the chloride kinetic assay on HEK cells transfected with the YFP (mock) or with YFP and NKCC1. The arrow indicates the addition of NaCl (final concentration 74 mM) used to initiate the flux assay. b) Quantification of the effect of bumetanide (10 μM and 100 μM) or furosemide (10 μM and 100 μM) in the chloride kinetic assay on mock or NKCC1-transfected HEK293 cells. Data represents mean±sem from 5 independent experiments. c) Quantification of the effect of bumetanide and furosemide and 2 selected compounds (3.8, 3.17) in the chloride kinetic assay on NKCC1-transfected HEK293 cells. Data represents mean±sem from 5 independent experiments, and they are represented as % of the controls. *P<0.05, **P<0.01, ***P<0.001 Kruskal-Wallis Anova (Dunn's Post hoc Test); ###P<0.001 two-tailed unpaired Student t-test.
To screen in vitro the compounds efficiency in blocking NKCC1, a functional NKCC1 transporter assay was performed by measuring variation of Cl^− ion concentration in the cell through a Cl^− sensitive membrane-tagged yellow fluorescent protein (mbYFPQS, Addgene). mbYFPQS fluorescence is inversely dependent on the concentration of Cl^− inside the cell thus allowing an indirect estimation of the Cl^− transporter activity. In particular, HEK293 cells were transfected with NKCC1 or mock construct (control) together with the Cl^− sensitive YFP. After 2 DIV, the cells were treated with bumetanide and furosemide (as positive controls) or with each of the tested compounds of the invention in a Cl^− free medium. After 30 min, the inhibitory activity of the compounds was tested by monitoring fluorescence upon application of NaCl (FIG. 1a). Transported by NKCC1, Cl binds the YFP, leading to a fluorescence decrease. […] With the Cl kinetic assay, the NKCC1 inhibitory activity of the selected compounds was tested (FIG. 1c).

| NKCC1 Inhibition % 10 μM HEK Chloride YFP assay (Table 1) | NKCC1 Inhibition % 10 μM HEK Chloride YFP assay (Table 2) | inhibition at 10 µM (Table 1) [%] | Molecule | also measured |
| --- | --- | --- | --- | --- |
| Inactive | Inactive |  | CCCCCCCCNc1ccc(C(=O)O)cc1S(=O)(=O)N(C)C [Compound 3.13, 3-(dimethylsulfamoyl)-4-(octylamino)benzoic acid] |  |
|  |  | 5 | CCCCCCCCNc1ccc(C(=O)O)cc1S(N)(=O)=O [Compound 2.8, 4-(octylamino)-3-sulfamoyl-benzoic acid] |  |
| Inactive | Inactive |  | CNS(=O)(=O)c1cc(C(=O)O)ccc1NCCC(C)(C)C [Compound 3.9, 4-(3,3-dimethylbutylamino)-3-(methylsulfamoyl)benzoic acid] |  |
|  |  | 1 | CC(C)(C)CCNc1ccc(C(=O)O)cc1S(N)(=O)=O [Compound 2.9, 4-(3,3-dimethylbutylamino)-3-sulfamoyl-benzoic acid] |  |
|  |  | 10 | CCCCCCNc1cc(Cl)c(C(=O)O)cc1S(N)(=O)=O [Compound 2.3, 2-chloro-4-(hexylamino)-5-sulfamoyl-benzoic acid] |  |
|  |  | 8 | CCCCCCNc1ccc(C(=O)O)cc1S(=O)(=O)N(C)C [Compound 3.12, 3-(dimethylsulfamoyl)-4-(hexylamino)benzoic acid] |  |
|  |  | 37 | CN(C)S(=O)(=O)c1cc(C(=O)O)ccc1NCCCCCCCC(F)(F)F [Compound 3.17, 3-(dimethylsulfamoyl)-4-(8,8,8-trifluorooctylamino) benzoic acid] | NKCC1 inhibition compared with bumetanide and furosemide (100 μM): better than bumetanide and furosemide |
|  |  | 4 | CCCCCCNc1ccc(C(=O)O)cc1S(N)(=O)=O [Compound 2.7, 4-(hexylamino)-3-sulfamoyl-benzoic acid] |  |
|  |  | 9 | CCCCNc1ccc(C(=O)O)cc1S(=O)(=O)N(C)C [Compound 3.11, 4-(butylamino)-3-(dimethylsulfamoyl)benzoic acid] |  |
| Inactive | Inactive |  | CN(C)S(=O)(=O)c1cc(C(=O)O)ccc1NCCC(C)(C)C [Compound 3.14, 4-(3,3-dimethylbutylamino)-3-(dimethylsulfamoyl)benzoic acid] |  |
|  |  | 36 | CCCCNc1cc(Cl)c(C(=O)O)cc1S(N)(=O)=O [Compound 2.2, 4-(butylamino)-2-chloro-5-sulfamoyl-benzoic acid] |  |
| Inactive | Inactive |  | CC(C)(C)CCNc1cc(Cl)c(C(=O)O)cc1S(N)(=O)=O [Compound 2.5, 2-chloro-4-(3,3-dimethylbutylamino)-5-sulfamoyl-benzoic acid] |  |
|  |  | 14 | CCCCCCCCNc1cc(Cl)c(C(=O)O)cc1S(N)(=O)=O [Compound 2.4, 2-chloro-4-(octylamino)-5-sulfamoyl-benzoic acid] |  |
| Inactive | Inactive |  | CCCCCCNc1ccc(C(=O)O)cc1S(=O)(=O)NC [Compound 3.7, 4-(hexylamino)-3-(methylsulfamoyl)benzoic acid] |  |
|  |  | 16 | CCCCCCCCNc1ccc(C(=O)O)cc1S(=O)(=O)NC [Compound 3.8, 3-(methylsulfamoyl)-4-(octylamino)benzoic acid] |  |
|  |  | 8 | CCCCNc1ccc(C(=O)O)cc1S(=O)(=O)NC [Compound 3.6, 4-(butylamino)-3-(methylsulfamoyl)benzoic acid] |  |
| Inactive | Inactive |  | CCCCNc1ccc(C(=O)O)cc1S(N)(=O)=O [Compound 2.6, 4-(butylamino)-3-sulfamoyl-benzoic acid] |  |

Second part, the molecule before the results:

| Molecule | NKCC1 Inhibition % 10 μM HEK Chloride YFP assay (Table 1) | NKCC1 Inhibition % 10 μM HEK Chloride YFP assay (Table 2) | inhibition at 10 µM (Table 1) [%] | also measured |
| --- | --- | --- | --- | --- |
| CCCCCCNc1ccc([N+](=O)[O-])cc1S(=O)(=O)NC [Compound 1.11, 2-(hexylamino)-N-methyl-5-nitro-benzenesulfonamide] |  |  |  | inhibition at 10 µM (Table 2): 3.4% |
| CCCCCCCCNc1ccc([N+](=O)[O-])cc1S(=O)(=O)N(C)C [Compound 1.16, N,N-dimethyl-5-nitro-2-(octylamino)benzenesulfonamide] | Inactive | Inactive |  |  |
| CCCCCCNc1ccc([N+](=O)[O-])cc1S(=O)(=O)N(C)C [Compound 1.15, 2-(hexylamino)-N,N-dimethyl-5-nitro-benzenesulfonamide] |  |  | 16 |  |
| CNS(=O)(=O)c1cc([N+](=O)[O-])ccc1NCCC(C)(C)C [Compound 1.13, 2-(3,3-dimethylbutylamino)-N-methyl-5-nitro-benzenesulfonamide] |  |  | 17 |  |
| CC(C)(C)CCNc1ccc([N+](=O)[O-])cc1S(N)(=O)=O [Compound 1.9, 2-(3,3-dimethylbutylamino)-5-nitro-benzenesulfonamide] |  |  | 5 |  |
| CCCCCCCCNc1ccc([N+](=O)[O-])cc1S(N)(=O)=O [Compound 1.8, 5-nitro-2-(octylamino)benzenesulfonamide] |  |  | 12 |  |
| CN(C)S(=O)(=O)c1cc([N+](=O)[O-])ccc1NCCC(C)(C)C [Compound 1.17, 2-(3,3-dimethylbutylamino)-N,N-dimethyl-5-nitro-benzenesulfonamide] | Inactive | Inactive |  |  |
| CCCCCCCCNc1ccc([N+](=O)[O-])cc1S(=O)(=O)NC [Compound 1.12, N-methyl-5-nitro-2-(octylamino)benzenesulfonamide] | Inactive | Inactive |  |  |
| CCCCNc1cc(C(=O)O)cc(S(N)(=O)=O)c1Oc1ccccc1 [Bumetanide, reference compound] |  |  | 54 | effect on decrease in fluorescence upon NaCl application in NKCC1-transfected cells: significantly reduced |
| CCCCNc1ccc([N+](=O)[O-])cc1S(=O)(=O)NC [Compound 1.10, 2-(butylamino)-N-methyl-5-nitro-benzenesulfonamide] | Inactive | Inactive |  |  |
| CCCCNc1ccc([N+](=O)[O-])cc1S(N)(=O)=O [Compound 1.6, 2-(butylamino)-5-nitro-benzenesulfonamide] |  |  | 11 |  |
| Furosemide [reference compound] | Inactive | Inactive |  | effect on decrease in fluorescence upon NaCl application in NKCC1-transfected cells: effective at 100 μM only |
| CCCCNc1ccc([N+](=O)[O-])cc1S(=O)(=O)N(C)C [Compound 1.14, 2-(butylamino)-N,N-dimethyl-5-nitro-benzenesulfonamide] | Inactive | Inactive |  |  |
| CCCCCCNc1ccc([N+](=O)[O-])cc1S(N)(=O)=O [Compound 1.7, 2-(hexylamino)-5-nitro-benzenesulfonamide] |  |  | 25 |  |
